Assay results taken from patent publication US20080105961A1, “Ligands of the Molecule Fit (Agt-121) and their Pharmaceutical Use” (priority 2004, published 2008).
Marks after values point to notes of the source that are not given here.

What was measured:
melanocortin receptor = assay: Feeding response to ICV injection of SHU9119 after three days of ODN or saline infusion; assay type: in vivo, Sprague Dawley rats; conditions: mean ± SEM
Source text: To further analyse the link between FIT and the melanocortin system, the feeding response of Sprague Dawley rats to an ICV injection of SHU9119, a melanocortin receptor antagonist and known feeding stimulator was investigated. After three days of FIT antisense treatment, jumbled oligonucleotide or saline infusion, responses were compared to rats receiving an ICV injection of saline vehicle rather than SHU9119.

FIT mRNA [1] = assay: Hypothalamic FIT gene expression by semi-quantitative RT-PCR in ICV antisense-treated rats; assay type: in vivo, Sprague Dawley rats; conditions: hypothalamus, ICV-treated Sprague Dawley rats, mean ± SEM
Procedure: To confirm endogenous suppression of FIT in antisense-treated Sprague Dawley rats, FIT mRNA in the hypothalamus of these animals was measured.

FIT mRNA [2] = assay: ICV infusion of FIT antisense ODN in Psammomys obesus: food intake and body weight; assay type: in vivo
Procedure: To further investigate the orexigenic properties of FIT intracerebroventricular (ICV) antisense suppression of FIT was performed. This involved the infusion of FIT antisense oligonucleotides (ODNs) directly into the lateral ventricle space of the brain to suppress endogenous FIT mRNA levels. The effects of this treatment on food intake and body weight were measured and compared to control animals infused with a jumbled sequence ODN, or saline alone. 18 week old, male, lean, normal glucose tolerant (nGT) P. obesus animals were utilised for this study and infused with either saline, FIT antisense ODN, or jumbled ODN at 24 μg/day for four days. The sequence of the FIT antisense ODN was 5′-mu*mg*mg*mc*ma*g*a*a*t*t*g*c*a*mu*mu*mc*mc*mu*-3′, and the jumbled ODN 5′-mc*mg*mc*ma*mc*t*t*a*g*c*t*a*c*mu*mu*mg*mc*mu-3′, where m indicates the presence of a 2′O-Methyl-modified base, and * indicates a phosphorothioate linkage.

FIT mRNA [3] = assay: Metabolic heat production by indirect calorimetry (FIG. 1); assay type: in vivo, Sprague Dawley rats; conditions: pair fed, last half of dark phase and majority of light phase
Source text: FIG. 1 is a graphical representation of metabolic heat production in Sprague Dawley rats after three days of FIT antisense-treatment compared to jumbled ad libitum fed and jumbled pair fed rats. *p<0.05 pair fed compared to jumbled group, #p<0.05 pair fed compared to FIT antisense-treated group, ̂p<0.05 compared to both jumbled and FIT antisense-treated groups. Data are mean ±SEM.
To further dissect the nature of the inability to reduce TEE levels after FIT antisense treatment, metabolic heat production was measured by indirect calorimetry.

MC4R = target: T1, MC4R (Rattus norvegicus, UniProt P70596); assay: Feeding response to MT II after ODN or saline infusion; assay type: in vivo, Sprague Dawley rats; conditions: mean ± SEM
T1 construct: from tissue; host or cells: living Sprague Dawley rats (brain)
Procedure: To further investigate this relationship, antisense suppression of FIT in Sprague Dawley rats was again performed and these animals' responses to administration of the α-MSH analog MT II, a synthetic agonist of the MC4R and known suppressor of feeding. MT II effects on food intake and body weight in saline and jumbled ODN-treated control rats, as well as in FIT antisense-treated rats was measured.

FIT mRNA [4] = assay: Pair-feeding study with indirect calorimetry (24 h): body weight, food intake, total energy expenditure; assay type: in vivo, Sprague Dawley rats; conditions: mean ± SEM; for Day 0 BW: baseline
Procedure: To investigate the mechanism of weight loss after FIT antisense treatment, a group of Sprague Dawley rats were pair fed to the average daily food intake levels of FIT antisense-treated rats, and indirect calorimetry (24 h) was performed before and after FIT antisense or jumbled ODN ICV infusion.
Total energy expenditure (TEE) was calculated from measurements of oxygen consumption and carbon dioxide production using indirect calorimetry (Ferrannini, 1988). Due to differences in body weight between the three groups of rats, TEE levels were calculated relative to whole body mass of the animals. […] FIT antisense-treated rats therefore have an inappropriately high level of energy expenditure for their body weight.

FIT mRNA [5] = assay: ICV infusion of FIT antisense ODN in Sprague Dawley rats: food intake and body weight; assay type: in vivo
Procedure: To confirm the appetite-suppressing and weight-reducing effects of central FIT suppression in an animal model other than P. obesus, the inventors performed the same experiments in Sprague Dawley rats. Male, 12 week old Sprague Dawley rats were infused with either saline, FIT antisense ODN, or jumbled ODN at 24 μg/day for four days. The sequence of the FIT antisense ODN and the jumbled ODN are the same as in Example 2 above.

[6] = ICV 24 μg/day, day 1, mean ± SEM
[7] = ICV 24 μg/day, day 2, mean ± SEM
[8] = ICV 24 μg/day, day 3, mean ± SEM
[9] = ICV 24 μg/day, day 4, mean ± SEM
[10] = baseline body weight, mean ± SEM
[11] = change compared to day 0, mean ± SEM
[12] = not pair fed (jumbled group ad libitum fed)
[13] = pair fed to food intake of FIT antisense-treated rats

T1 sequence (P70596 whole entry, the tested form may be a part): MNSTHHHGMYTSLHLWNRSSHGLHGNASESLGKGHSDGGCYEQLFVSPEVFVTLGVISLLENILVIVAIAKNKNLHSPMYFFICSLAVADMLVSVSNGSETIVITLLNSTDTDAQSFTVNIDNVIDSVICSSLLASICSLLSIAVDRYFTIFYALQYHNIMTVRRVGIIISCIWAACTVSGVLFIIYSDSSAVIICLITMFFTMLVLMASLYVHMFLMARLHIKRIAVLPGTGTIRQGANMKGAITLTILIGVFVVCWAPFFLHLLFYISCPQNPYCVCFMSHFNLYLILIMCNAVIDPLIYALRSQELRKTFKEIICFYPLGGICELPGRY

- Δ FI (MC4R; 24 hr food intake post minus pre injection): −0.02 ± 0.01 g/g BW
- 24 hr FI post injection (MC4R; food intake after MT II or vehicle injection): 0.04 ± 0.01 g/g BW
- 24 hr FI pre injection (MC4R; food intake, during ICV infusion, before MT II or vehicle injection): 0.06 ± 0.01 g/g BW
Substance: 5′-mc*mg*mc*ma*mc*t*t*a*g*c*t*a*c*mu*mu*mg*mc*mu-3′ [Jumbled, reference compound]
- Δ FI (melanocortin receptor; 48 hr food intake post minus pre injection): 0.03 ± 0.02 g/g BW
- 48 hr FI post injection (melanocortin receptor; food intake relative to body weight, after ICV SHU9119 or vehicle injection): 0.13 ± 0.01 g/g BW
- 48 hr FI pre injection (melanocortin receptor; food intake relative to body weight, during ICV infusion, before SHU9119 or vehicle injection): 0.10 ± 0.01 g/g BW
- FIT gene expression (FIT mRNA [1]): 8.4 ± 0.6 arbitrary units
- Cumulative food intake, Day 1 Food (FIT mRNA [2]; [6]): 8.9 ± 0.5^a g
- Cumulative food intake, Day 2 Food (FIT mRNA [2]; [7]): 17.3 ± 1.0^a g
- Cumulative food intake, Day 3 Food (FIT mRNA [2]; [8]): 27.3 ± 1.5^a g
- Cumulative food intake, Day 4 Food (FIT mRNA [2]; [9]): 38.7 ± 2.7 g
- Day 1 BW (FIT mRNA [2]; ICV 24 μg/day, mean ± SEM): 188 ± 9 g
- Day 2 BW (FIT mRNA [2]; ICV 24 μg/day, mean ± SEM): 188 ± 9 g
- Day 3 BW (FIT mRNA [2]; ICV 24 μg/day, mean ± SEM): 187 ± 9 g
- Day 4 BW (FIT mRNA [2]; ICV 24 μg/day, mean ± SEM): 187 ± 9 g
- Day 0 BW (FIT mRNA [2]; [10]): 191 ± 9 g
- Day 1 ΔBW (FIT mRNA [2]; [11]): -3.8 ± 0.7 g
- Day 2 ΔBW (FIT mRNA [2]; [11]): -3.3 ± 0.8 g
- Day 3 ΔBW (FIT mRNA [2]; [11]): -4.0 ± 1.6 g
- Day 4 ΔBW (FIT mRNA [2]; [11]): -3.5 ± 1.7 g
- metabolic heat production compared to jumbled-treated ad libitum fed and FIT antisense-treated rats (FIT mRNA [3]): significantly reduced heat production
- Day 0 BW (FIT mRNA [4]; [12]): 404 ± 31 g
- Day 4 BW (FIT mRNA [4]; [12]): 386 ± 24 g
- Food Intake (FIT mRNA [4]; [12]): 81.1 ± 10.3 g
- Δ BW (FIT mRNA [4]; [12]): -17.3 ± 8.9 g
- Δ TEE (FIT mRNA [4]; not pair fed): -21 ± 17 kJ/day/kg
- Post TEE (FIT mRNA [4]; not pair fed, total energy expenditure after ICV infusion): 492 ± 61 kJ/day/kg
- Pre TEE (FIT mRNA [4]; not pair fed, total energy expenditure before ICV infusion): 513 ± 62 kJ/day/kg
- Day 0 BW (FIT mRNA [4]; [13]): 357 ± 9 g
- Day 4 BW (FIT mRNA [4]; [13]): 317 ± 7^a g
- Food Intake (FIT mRNA [4]; [13]): 39.1 ± 3.2^a g
- Δ BW (FIT mRNA [4]; [13]): -39.7 ± 9.9 g
- Post TEE (FIT mRNA [4]; pair fed, after ICV infusion): 456 ± 30^c kJ/day/kg
- Pre TEE (FIT mRNA [4]; pair fed, before ICV infusion): 556 ± 59 kJ/day/kg
- Δ TEE (FIT mRNA [4]; pair fed): -100 ± 28 kJ/day/kg
- Cumulative food intake, Day 1 Food (FIT mRNA [5]; [6]): 18.7 ± 2.4 g
- Cumulative food intake, Day 2 Food (FIT mRNA [5]; [7]): 44.7 ± 4.1 g
- Cumulative food intake, Day 3 Food (FIT mRNA [5]; [8]): 72.6 ± 5.1 g
- Cumulative food intake, Day 4 Food (FIT mRNA [5]; [9]): 101.5 ± 6.1 g
- Day 1 BW (FIT mRNA [5]; ICV 24 μg/day, mean ± SEM): 457 ± 24 g
- Day 2 BW (FIT mRNA [5]; ICV 24 μg/day, mean ± SEM): 468 ± 23 g
- Day 3 BW (FIT mRNA [5]; ICV 24 μg/day, mean ± SEM): 473 ± 23 g
- Day 4 BW (FIT mRNA [5]; ICV 24 μg/day, mean ± SEM): 477 ± 22 g
- Day 0 BW (FIT mRNA [5]; [10]): 465 ± 24 g
- Day 1 ΔBW (FIT mRNA [5]; [11]): -7.8 ± 3.6 g
- Day 2 ΔBW (FIT mRNA [5]; [11]): 3.5 ± 3.7 g
- Day 3 ΔBW (FIT mRNA [5]; [11]): 6.3 ± 3.5 g
- Day 4 ΔBW (FIT mRNA [5]; [11]): 12.0 ± 4.1 g
